Entries after “also recorded” stand apart in the source; their conditions may differ. Where two headings read alike, the source gives them in different places.
Assays:
[1] = tested on: MNU-induced mammary cancer; assay: 180-day study of RTMBE for suppression of MNU-induced mammary carcinogenesis (Expt. 3); format: in vivo, rat (female Sprague-Dawley)
Method: (§1) Retinoid diet mixtures were stored at 4° C. […] The animals were palpated for mammary tumors 2×/week. […] Also, five rats/group had complete necropsies performed.
The 2,5-dimethoxybenzyl (3b) and 4-methoxybenzyl (3e) ethers were tested in the same way in a 90-day study. […] The 2,5-dimethybenzyl (3c) and the 2,3-dimethoxybenzyl (3h) ethers, together with RTMBE for comparison, were likewise assayed according to the same methodology. Prior to the beginning of this study, specimens of the retinoid-diet mixtures were placed under the conditions that were employed during the storage and feeding of RTMBE, 3c, and 3h. The specimens were extracted with butanol, and the extracts were analyzed by HPLC. […] Testing of 3c and 3h was discontinued, but the RTMBE study was continued until the duration of the study was 180 days (Table 6). The results were similar to those of Experiment 1 (Table 3). The averages of the number of tumors per rat were reduced by 32-35%; in addition, the averages of the tumor weights per rat was 56-70% lower than the average tumor burden of the control group.
^a Each group of female Sprague-Dawley rats (10/group) received one
until Day 180 after injection of MNU.
and was continued until the study was terminated at 180 days after MNU.

[2] = tested on: NADPH-requiring enzymes in rat liver microsomes; assay: Conversion of retinyl ethers to retinol by rat liver microsomal enzymes; format: in vitro ADME; details: in vitro
Method: Because it was postulated, as stated above, that new retinyl ethers might not be converted by mircrosomal oxidases to retinol, RTMBE and 3a-i were tested in vitro in the same way.

[3] = Tissue concentrations resulting from gavage of rats with RTMBE; format: in vivo, rat (female Sprague-Dawley); details: for concentration at 168 h / concentration at 336 h: rat, po, 14 mg/day by gavage; for concentration at 168 h: 7 days; for concentration at 336 h: 14 days
Method: To plasma samples (50-200 μl), ten volumes of acetonitrile were added, and the preparations were centrifuged. The supernatants were evaporated to dryness under nitrogen and reconstituted in the mobile phase (see below). Tissues were homogenized in four volumes of water at 0° C., and each homogenate was extracted with acetonitrile (50 mL/g tissue). From this point, handling of plasma and tissue samples was identical. Portions (25-50 μl) of the reconstituted samples were analyzed by reverse-phase HPLC. The chromatographic system was composed of a Beckman solvent delivery module 110B, analogue interface module 406, programable detector module 166, and autosampler 507. The column was a Hypersil ODS, 5-μ, 250×4.6 mm. Elution was accomplished with a solvent of methanol:0.2%acetic acid (93.5:6.5, v/v) with the final solution containing 0.02% triethylamine. The flow rate was 1 mL/min, with detection at 340 nm.
The concentrations of RTMBE in the serum, mammary gland, and liver of rats, as well as the levels of RP in the liver, were determined after administration of RTMBE by gavage during 14 days (Table 9). […] In order to investigate further the accumulation of retinyl benzyl ethers in mammary tissue, RTMBE, the 2,5-dimethoxybenzyl ether (3b), and the 4-methoxybenzyl (3e) ether were administered intravenously (via a tail vein) at 5 mg/kg to female Sprague-Dawley rats (3 with each retinoid). Acetonitrile extracts of plasma and mammary tissue were analyzed by HPLC. The ratios of mammary tissue-to-plasma concentrations of RTMBE, 3b, and 3e were 183±77, 38±20, and 41±14, respectively, after 24 hr.
^a The dose of 14 mg/day by gavage is equivalent to a feeding dose of 2

[4] = tested on: TPA-induced ornithine decarboxylase (ODC); assay: Inhibition of TPA-induced ornithine decarboxylase (ODC) in mouse skin; format: in vivo
Source text: Earlier, several alkyl, alkenyl, or alkynyl retinyl ethers had been assayed for inhibition of TPA-induced ornithine decarboxylase (ODC) in mouse skin and for the suppression of DMBA-initiated and TPA-promoted mouse-skin papillomas (Shealy et al., 1997). In comparison with control groups, these retinyl ethers were ineffective. Only a few representatives of the benzyl ethers were selected for tests in these assays. […] Because of these and the earlier results (Shealy et al., 1997), testing of retinyl benzyl ethers in the ODC and papilloma assays was discontinued.

[5] = Mammary tissue-to-plasma concentration after intravenous dosing; format: in vivo, rat (female Sprague-Dawley); details: rat, 5 mg/kg i.v., after 24 hr, read-out: ratio of mammary tissue-to-plasma concentrations
[6] = tested on: MNU-induced mammary cancer; assay: 180-day study of RTMBE for suppression of MNU-induced mammary carcinogenesis (Expt. 3); format: in vivo, rat (female Sprague-Dawley); details: second, confirmatory experiment; 2 mmol/kg of diet, 180 days
[7] = Toxicity observations in rats receiving retinoids in feed; format: in vivo, rat (Sprague-Dawley); details: administered in feed, listed as RTMBE
Method: as §1

[8] = in vivo
Method: Toxicological evaluations involving measurement of body weights and observations of clinical signs characteristic of retinoid toxicity were accomplished as previously described (Lin et al., 1996).
RTMBE and two of its analogues, together with RME and RPE, were selected for estimation of their toxicities to mice when administered during 28-29 days by gavage in corn oil (Table 8). Mice were evaluated for changes in body weight and for signs of clinical retinoid toxicity (hypervitaminosis A) including alopecia, scaly skin, and limping. In the first experiment, these retinyl ethers were given at equimicromolar doses at three dose levels. The retinyl benzyl ethers (RTMBE, 3c, and 3e) were then tested at higher doses in a second experiment.

[9] = Shealy et al., 1997; cited from earlier work
[10] = tested on: MNU-induced mammary cancer; details: for Adenocarcinomas, % of Control Group A / Adenocarcinomas, Avg. No. Per Rat / reduction of average number of tumors per rat: 160 days
Method: Briefly, diets were prepared by mixing each retinoid with Wayne meal or Teklad (4%) mash diet. For each kg of diet, the retinoid was dissolved in 12 g ethanol, 19 g trioctanoin, 0.05 mL Tenox 20, and 0.05 mL d,1-alpha tocopherol prior to incorporation into the feed using a Patterson-Kelly blender. Retinoid diet mixtures were stored at 4° C. Portions of each retinoid-diet mixture were analyzed for the added retinoid to ensure homogeneity. Female Sprague-Dawley rats received an i.v. injection of MNU (45 mg/kg body weight) at 50 days of age. Diet supplementation with retinoids was initiated three days after MNU. A group of rats receiving retinyl acetate (1 mmol/kg of diet) served as the positive control. The animals were palpated for mammary tumors 2×/week. At termination of the study, mammary tumors were processed for histological classification. Also, five rats/group had complete necropsies performed. The tissues were examined histologically for pathological lesions as additional toxicological evaluation. Extracts of the liver and mammary gland (5 rats/group) were analyzed by HPLC for retinyl palmitate and/or for the dosed retinoid. Statistical analyses of cancer incidence and latency were determined using logrank analysis, while differences in cancer multiplicity were determined employing the Armitage test.
In this assay, described previously (Grubbs et al., 1995; Shealy el al., 1997), a retinoid dissolved in a solution (vehicle) consisting of ethanol and trioctanoin plus small amounts of Tenox 20 and α-tocopherol was mixed with feed, and the mixture was fed to rats after intravenous injection of MNU.
^a Female Sprague-Dawley rats (10/group) received one i.v. injection of
MNU (45 mg/kg of body weight) at 50 days of age. Diet supplementation with
retinoids was initiated at 52 days of age and was continued until the
study was terminated 160 days after administration of MNU.
^b Treatment with retinoids is stated in millimoles of retinoid per
kilogram of diet (Wayne meal).

[11] = Stability of retinyl ethers in storage and in solution; format: physicochemical
[12] = mammary gland, read-out: RTMBE, Mammary Gland
[13] = 7 days, 25.5±1.5° C., protected

COc1cc(COC/C=C(C)/C=C/C=C(C)/C=C/C2=C(C)CCCC2(C)C)cc(OC)c1OC [Compound 2, Retinyl 3,4,5-Trimethoxybenzyl Ether]
Adenocarcinomas, % of Control Gp. ([1]; 0.5 mmol/kg diet, 180 days): 65% | Adenocarcinomas, Avg. No. Per Rat ([1]; 0.5 mmol/kg diet, 180 days): 4.07 | Final Body Wt. ([1]; 0.5 mmol/kg diet, 180 days): 259 g | Tumor Wt. Per Rat ([1]; 0.5 mmol/kg diet, 180 days): 7.0 g | Adenocarcinomas, % of Control Gp. ([1]; 1 mmol/kg diet, 180 days): 67% | Adenocarcinomas, Avg. No. Per Rat ([1]; 1 mmol/kg diet, 180 days): 4.20 | Final Body Wt. ([1]; 1 mmol/kg diet, 180 days): 252 g | Tumor Wt. Per Rat ([1]; 1 mmol/kg diet, 180 days): 7.57 g | Adenocarcinomas, % of Control Gp. ([1]; 2 mmol/kg diet, 180 days): 68% | Adenocarcinomas, Avg. No. Per Rat ([1]; 2 mmol/kg diet, 180 days): 4.27 | Final Body Wt. ([1]; 2 mmol/kg diet, 180 days): 246 g | Tumor Wt. Per Rat ([1]; 2 mmol/kg diet, 180 days): 5.14 g | average tumor weight per rat lower than control group ([1]; 180 days, 0.5-2 mmol/kg diet): 56-70% | reduction of average number of tumors per rat ([1]; 180 days, 0.5-2 mmol/kg diet): 32-35% | suppression of MNU-induced mammary cancer ([1]; three long-term experiments of 160-180 days): suppressed MNU-induced mammary cancer | conversion to retinol [2]: not detectable | liver levels of RP compared with vehicle group ([3]; after 14 days, gavage): only slightly higher than the levels of the vehicle group | change of serum concentration of RTMBE ([3]; between 7 and 14 days, gavage): did not change significantly | increase of concentration in mammary gland ([3]; between 7 and 14 days, gavage): more than two-fold | increase of liver level of RTMBE ([3]; between 7 and 14 days, gavage): 22% | concentration at 168 h ([3]; liver, read-out: RTMBE, Liver): 78900 ± 7500 ng/g | concentration at 336 h ([3]; liver, read-out: RTMBE, Liver): 96100 ± 11100 ng/g | concentration at 168 h [3, 12]: 83300 ± 7300 ng/g | concentration at 336 h [3, 12]: 178000 ± 11100 ng/g | concentration at 168 h ([3]; serum, read-out: RTMBE, Serum): 16300 ± 2500 ng/mL | concentration at 336 h ([3]; serum, read-out: RTMBE, Serum): 17300 ± 2200 ng/mL | activity in ODC assay [4]: not active in the ODC assay | Kp at 24 h [5]: 183 ± 77 | reduction of adenocarcinoma formation, compared with retinyl acetate [6]: somewhat more effectively than retinyl acetate | toxicity in MNU-mammary cancer studies [7]: Overt toxicity was not evident; also recorded: not toxic in the mammary carcinogenesis studies | NOAEL ([8]; mouse, in vivo, po): 249 mg/kg/day | Toxic Dose ([8]; oral gavage in corn oil, 28-29 days): > 249 mg/kg day | clinical toxicity (alopecia, scaly skin, limping) ([8]; oral gavage, up to highest dose (RTMBE and RMoBE-4: Expt. 2)): No evidence of clinical toxicity | recovery from the feed of rats [9]: recoverable from the feed of rats | Adenocarcinomas, % of Control Group A ([10]; 0.5 mmol/kg diet): 100% | Adenocarcinomas, Avg. No. Per Rat ([10]; 0.5 mmol/kg diet): 6.5 | Adenocarcinomas, % of Control Group A ([10]; 1 mmol/kg diet): 55% | Adenocarcinomas, Avg. No. Per Rat ([10]; 1 mmol/kg diet): 3.6 | reduction of average number of tumors per rat ([10]; 1 mmol/kg feed): 46% | Adenocarcinomas, % of Control Group A ([10]; 2 mmol/kg diet): 54% | Adenocarcinomas, Avg. No. Per Rat ([10]; 2 mmol/kg diet): 3.5 | reduction of average number of tumors per rat ([10]; 2 mmol/kg feed): 45% | prevention / suppression of mammary cancer, general statement ([10]; animal model / in vivo initial study): suppress mammary cancer in vivo | stability on storage ([11]; 5 years at -20° C., inert atmosphere): unchanged | stability in DMSO [11, 13]: changed very little | stability in absolute ethanol [11, 13]: practically unchanged | remaining at 43830 h ([11]; inert atmosphere storage, 5 years at -20° C., inert atmosphere, read-out: HPLC on re-analysis after storage): 99.2%
